Calls of active or inactive are those of the source. How the calls were made is not given here.
Test system: rodent carcinogenicity bioassays, tumor incidence
Experiment: CCRIS carcinogenicity studies
How it was run: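 NCI-built, expert-reviewed records of carcinogenicity and related test outcomes (mutagenicity, tumor promotion/inhibition) compiled from published and report sources, historical span 1985-2011, not updated.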

Q: With `CCCCCc1cc(O)c2c(c1)OC(C)(C)[C@@H]1CCC(C)=C[C@@H]21` as the compound, how does the carcinogen call (Species: MOUSE, Strain/Sex: B6C3F1/FEMALE, Route: GAVAGE, Dose: 0, 125, 250, 500 MG/KG BW IN CORN OIL FOR 105-106 WK (STUDY DURATION: 105-106 WK), Dose: 0, 125, 250, 500 MG/KG BW IN CORN OIL FOR 105-106 WK (STUDY DURATION: 105-106 WK), Tumor Site: Type of Lesion: THYROID GLAND: FOLLICULAR CELL ADENOMA) read?
A: equivocal

Q: And the carcinogen call (Species: MOUSE, Strain/Sex: B6C3F1/MALE, Route: GAVAGE, Dose: 0, 125, 250, 500 MG/KG BW IN CORN OIL FOR 104-105 WK (STUDY DURATION: 104-105 WK), Dose: 0, 125, 250, 500 MG/KG BW IN CORN OIL FOR 104-105 WK (STUDY DURATION: 104-105 WK), Tumor Site: Type of Lesion: THYROID GLAND: FOLLICULAR CELL ADENOMA)?
A: equivocal

Q: And the carcinogen call (Species: RAT, Strain/Sex: F344/FEMALE, Route: GAVAGE, Dose: 0, 12.5, 25, 50 MG/KG BW IN CORN OIL FOR 104-105 WK (STUDY DURATION: 104-105 WK), Dose: 0, 12.5, 25, 50 MG/KG BW IN CORN OIL FOR 104-105 WK (STUDY DURATION: 104-105 WK))?
A: inactive; negative

Q: And the carcinogen call (Species: RAT, Strain/Sex: F344/MALE, Route: GAVAGE, Dose: 0, 12.5, 25, 50 MG/KG BW IN CORN OIL FOR 104-105 WK (STUDY DURATION: 104-105 WK), Dose: 0, 12.5, 25, 50 MG/KG BW IN CORN OIL FOR 104-105 WK (STUDY DURATION: 104-105 WK))?
A: inactive; negative

Q: `CCNNCC` was tested. Which carcinogen call (Species: RAT, Route: PRE-NATAL EXP, Tumor Site: Type of Lesion: BRAIN, NERVOUS SYSTEM) did it give?
A: active; positive

Q: Which results are given for `Cc1cc(N)ccc1N`?
A: carcinogen call (Species: MOUSE, Strain/Sex: B6C3F1/FEMALE, Route: ORAL, Dose: 0, 0.06, 0.1% OF DIET, TWA, Dose: 0, 0.06, 0.1% OF DIET, TWA): inactive; negative; carcinogen call (Species: MOUSE, Strain/Sex: B6C3F1/MALE, Route: ORAL, Dose: 0, 0.06, 0.1% OF DIET, TWA, Dose: 0, 0.06, 0.1% OF DIET, TWA): inactive; negative; carcinogen call (Species: RAT, Strain/Sex: F344/FEMALE, Route: ORAL, Dose: 0, 0.06, 0.2% OF DIET, TWA, Dose: 0, 0.06, 0.2% OF DIET, TWA): inactive; negative; carcinogen call (Species: RAT, Strain/Sex: F344/MALE, Route: ORAL, Dose: 0, 0.06, 0.2% OF DIET, TWA, Dose: 0, 0.06, 0.2% OF DIET, TWA): inactive; negative

Q: How did the carcinogen call (Species: RAT, Strain/Sex: F344/FEMALE, Route: INHALATION, Dose: 0, 1, 5, 25 MG/M3 6 HR/D 5 D/WK FOR 24 MO (STUDY DURATION: 24 MO), Dose: 0, 1, 5, 25 MG/M3 6 HR/D 5 D/WK FOR 24 MO (STUDY DURATION: 24 MO)) turn out when `O=P(=O)O` was run?
A: inactive; negative

Q: What about the carcinogen call (Species: RAT, Strain/Sex: F344/MALE, Route: INHALATION, Dose: 0, 1, 5, 25 MG/M3 6 HR/D 5 D/WK FOR 24 MO (STUDY DURATION: 24 MO), Dose: 0, 1, 5, 25 MG/M3 6 HR/D 5 D/WK FOR 24 MO (STUDY DURATION: 24 MO)) of the same compound?
A: inactive; negative

Q: For `CN=C(NCc1cnc(Cl)s1)N[N+](=O)[O-]`, which carcinogen call (Species: Rat, Strain/Sex: ???/Female (60/group), Route: Oral, Dose: 0, 150, 500, 1,500, 3,000 ppm in diet for 2 yr, Dose: 0, 150, 500, 1,500, 3,000 ppm in diet for 2 yr) is on record?
A: inactive; negative (study details not given in source; purity 95.2%)

Q: And the carcinogen call (Species: Rat, Strain/Sex: ???/Male (60/group), Route: Oral, Dose: 0, 150, 500, 1,500, 3,000 ppm in diet for 2 yr, Dose: 0, 150, 500, 1,500, 3,000 ppm in diet for 2 yr)?
A: inactive; negative (study details not given in source; purity 95.2%)

Q: For `O[C@H]1[C@H]2O[C@H]2c2c(ccc3cc4ccc5ccccc5c4nc23)[C@@H]1O`, which carcinogen call (Species: MOUSE, Strain/Sex: CD-1/FEMALE, Route: INTRAPERITONEAL, Dose: 0, 28 NMOL (TOTAL DOSE) ADMINISTERED AS 1/7 OF DOSE WITHIN 24 HR AFTER BIRTH, 2/7 OF DOSE AT 8 D OLD, 4/7 OF DOSE AT 15) is on record?
A: inactive; negative

Q: What about the carcinogen call (Species: MOUSE, Strain/Sex: CD-1/FEMALE, Route: INTRAPERITONEAL, Dose: 0, 175 NMOL (TOTAL DOSE) ADMINISTERED AS 1/7 OF DOSE WITHIN 24 HR AFTER BIRTH, 2/7 OF DOSE AT 8 D OLD, 4/7 OF DOSE AT 15) of the same compound?
A: inactive; negative

Q: What about the carcinogen call (Species: MOUSE, Strain/Sex: CD-1/MALE, Route: INTRAPERITONEAL, Dose: 0, 28 NMOL (TOTAL DOSE) ADMINISTERED AS 1/7 OF DOSE WITHIN 24 HR AFTER BIRTH, 2/7 OF DOSE AT 8 D OLD, 4/7 OF DOSE AT 15) of the same compound?
A: inactive; negative

Q: And the carcinogen call (Species: MOUSE, Strain/Sex: CD-1/MALE, Route: INTRAPERITONEAL, Dose: 0, 175 NMOL (TOTAL DOSE) ADMINISTERED AS 1/7 OF DOSE WITHIN 24 HR AFTER BIRTH, 2/7 OF DOSE AT 8 D OLD, 4/7 OF DOSE AT 15)?
A: inactive; negative

Q: For `Oc1cccc2cccnc12`, which carcinogen call (Species: MOUSE, Strain/Sex: B6C3F1/FEMALE, Route: ORAL, Dose: 0, 1500, 3000 PPM IN DIET FOR 103 WK, Dose: 0, 1500, 3000 PPM IN DIET FOR 103 WK) is on record?
A: inactive; negative

Q: And the carcinogen call (Species: MOUSE, Strain/Sex: B6C3F1/MALE, Route: ORAL, Dose: 0, 1500, 3000 PPM IN DIET FOR 103 WK, Dose: 0, 1500, 3000 PPM IN DIET FOR 103 WK)?
A: inactive; negative

Q: What about the carcinogen call (Species: RAT, Strain/Sex: F344/FEMALE, Route: ORAL, Dose: 0, 1500, 3000 PPM IN DIET FOR 103 WK, Dose: 0, 1500, 3000 PPM IN DIET FOR 103 WK) of the same compound?
A: inactive; negative

Q: What about the carcinogen call (Species: RAT, Strain/Sex: F344/MALE,FEMALE, Route: ORAL, Dose: 0.1% IN DIET FOR 2 YR) of the same compound?
A: inactive; negative

Q: What about the carcinogen call (Species: RAT, Strain/Sex: F344/MALE, Route: ORAL, Dose: 0, 1500, 3000 PPM IN DIET FOR 103 WK, Dose: 0, 1500, 3000 PPM IN DIET FOR 103 WK) of the same compound?
A: inactive; negative

Q: What does the source list for `Oc1ccc(Cl)cc1Cc1ccccc1`?
A: carcinogen call (Species: MOUSE, Strain/Sex: B6C3F1/FEMALE, Route: GAVAGE, Dose: 0, 120, 240, 480 MG/KG BW IN CORN OIL 5 D/WK FOR 103 WK (STUDY DURATION: 2 YR), Dose: 0, 120, 240, 480 MG/KG BW IN CORN OIL 5 D/WK FOR 103 WK (STUDY DURATION: 2 YR)): inactive; negative; carcinogen call (Species: MOUSE, Strain/Sex: B6C3F1/MALE, Route: GAVAGE, Dose: 0, 120, 240, 480 MG/KG BW IN CORN OIL 5 D/WK FOR 103 WK (STUDY DURATION: 2 YR), Dose: 0, 120, 240, 480 MG/KG BW IN CORN OIL 5 D/WK FOR 103 WK (STUDY DURATION: 2 YR), Tumor Site: Type of Lesion: KIDNEY (RENAL TUBULE): ADENOMA, ADENOMA OR CARCINOMA): active; positive; carcinogen call (Species: MOUSE, Strain/Sex: CD-1/FEMALE, Route: DERMAL, Dose: 10 MG IN ACETONE ONCE FOLLOWED BY 0.1, 1, 3 MG 3/WK FOR 51 WK (STUDY DURATION: 52 WK), Dose: 10 MG IN ACETONE ONCE FOLLOWED BY 0.1, 1, 3 MG 3/WK FOR 51 WK (STUDY DURATION: 52 WK)): inactive; negative; carcinogen call (Species: MOUSE, Strain/Sex: CD-1/MALE, Route: DERMAL, Dose: 10 MG IN ACETONE ONCE FOLLOWED BY 0.1, 1, 3 MG 3/WK FOR 51 WK (STUDY DURATION: 52 WK), Dose: 10 MG IN ACETONE ONCE FOLLOWED BY 0.1, 1, 3 MG 3/WK FOR 51 WK (STUDY DURATION: 52 WK)): inactive; negative; carcinogen call (Species: RAT, Strain/Sex: F344/FEMALE, Route: GAVAGE, Dose: 0, 30, 60, 120 MG/KG BW IN CORN OIL 5 D/WK FOR 103 WK (STUDY DURATION: 105 WK), Dose: 0, 30, 60, 120 MG/KG BW IN CORN OIL 5 D/WK FOR 103 WK (STUDY DURATION: 105 WK), Tumor Site: Type of Lesion: KIDNEY (TRANSITIONAL CELL): CARCINOMA): equivocal; carcinogen call (Species: RAT, Strain/Sex: F344/MALE, Route: GAVAGE, Dose: 0, 30, 60, 120 MG/KG BW IN CORN OIL 5 D/WK FOR 103 WK (STUDY DURATION: 2 YR), Dose: 0, 30, 60, 120 MG/KG BW IN CORN OIL 5 D/WK FOR 103 WK (STUDY DURATION: 2 YR)): inactive; negative
